Measured values taken from patent US10434167B2 (priority 2014, dated 2019).

System: Human red blood cells
Assay: Hemolytic assay (hemolysis of red blood cells by QS-21/saponin with or without liposomes)
Type: cell-based
Conditions: 22° C.
From the text: Hemolysis of red blood cells was used as a measure both of the relative amount of free QS-21, and of the toxicity of QS-21 under the indicated experimental conditions. Human red blood cells were purchased from the Research Blood Components LLC (Boston, Mass., USA) under a Walter Reed Army institute of Research protocol reviewed by the independent Institutional Review Board, Division of Human Subjects. Erythrocytes were washed with PBS and were quantified by a Beckman Coulter counter model ACT10 (Indianapolis Ind., USA). In each assay of this study, hemolytic activity of QS-21 incubated with or without liposomes was determined in 220 μl volume and each step of the assay was performed at room temperature (22° C.). One hundred microliters of QS-21 dilution was incubated with 100 μl of liposomes, or PBS only, on a Daigger Rocker (Vernon Hills, Ill., USA) for 15 minutes. After mixing the liposomes, 2×10^7 erythrocytes in 20 μl of PBS were added to the mixture and incubated on a Daigger Rocker for an additional 30 minutes. Plates were centrifuged at 800×g for 6 min. Supernatant was transferred to a polystyrene 96-well plate, and absorbance was read at 541 nm. Hemolysis by QS-21 binding to liposomal Chol was expressed as % of maximum hemolysis by free QS-21.
The hemolytic activities of liposome compositions with QS-21 were characterized first by varying QS-21 concentration. […] Red blood cells were added to the mixture of liposome-QS-21, and incubated for 30 minutes. Free QS-21 served as positive control. Cells were centrifuged and the optical density of supernatant was measured at 541 nm to reflect the levels of hemolysis.

With QS-21 the “amount of QS-21 causing maximum hemolysis” value (QS-21 pre-incubated with DMPC/DMPG liposomes (5 μmol phospholipids) containing 33.7 mol % Chol) was “approximately 4 μg”, the “amount of QS-21 causing maximum hemolysis” value (QS-21 pre-incubated with DMPC/DMPG liposomes (5 μmol phospholipids) containing 43 mol % Chol) was “approximately 4 μg” and the “amount of QS-21 up to which the hemolytic effect was completely blocked” value (QS-21 pre-incubated with DMPC/DMPG liposomes (5 μmol phospholipids) having 55 mol % Chol) was no less than 200 µg. The “amount of QS-21 causing maximum hemolysis” value (free QS-21, no liposomes) was “approximately 2 μg”.
